Measurements published in patent US11597708B2, “Inhibitors of heat shock factors and uses thereof” (HSF Pharmaceuticals SA, priority 2016, dated 2023).

Experiments:
[1] = system: hsp70b promoter-driven fluc gene; test: Corroborating experiment in a cell line containing an hsp70b promoter-driven fluc gene; assay type: cell-based; settings: data not shown
Method: (§1) The compounds of the afore-mentioned biased sublibrary were screened in cell line Z74 at 12.5 and 25 μM concentrations. Typically, Z74 cultures in 96-well plates were exposed to compound or vehicle for 2 h, heat-treated at 43.0° C. for 30 min, and incubated further for 6 h at 37° C. to allow for accumulation of the luciferases. RLuc and FLuc activities were determined, typically using the Dual-Glo® Luciferase Assay System (Promega Corp., Madison, Wis.), and reading luciferase light counts in a Wallac Microbeta Trilux-1450 Luminometer (PerkinElmer, Waltham, Mass.). IHSF 001 was one of two library compounds that inhibited RLuc expression but not FLuc expression in heat-treated Z74 cells (Table 1; FIG. 2A). Therefore, IHSF 001 is an inhibitor of HSF1 function that specifically acts through the HSF1 DNA-binding domain. […] A corroborating experiment utilized a cell line containing an hsp70b promoter-driven fluc gene. […] IHSF 001 is (E)-ethyl 4-oxo-4-(thiazol-2-ylamino)but-2-enoate. The compound can be obtained from commercial sources (e.g., AKE-PB-90340538, Akos).

LexA-hHSF = biological target: T1, LexA-hHSF (Homo sapiens, UniProt Q00613); test: Z74 cell-based reporter assay: heat-induced FLuc expression controlled by chimeric LexA-HSF1; settings: IHSF 001 tested at 25 μM
T1 construct: expressed in transfected cells; the other entry of the earlier key: lexA (P0A7C2, LexA repressor)
T1 sequence (Q00613 with tags, fused parts or gaps): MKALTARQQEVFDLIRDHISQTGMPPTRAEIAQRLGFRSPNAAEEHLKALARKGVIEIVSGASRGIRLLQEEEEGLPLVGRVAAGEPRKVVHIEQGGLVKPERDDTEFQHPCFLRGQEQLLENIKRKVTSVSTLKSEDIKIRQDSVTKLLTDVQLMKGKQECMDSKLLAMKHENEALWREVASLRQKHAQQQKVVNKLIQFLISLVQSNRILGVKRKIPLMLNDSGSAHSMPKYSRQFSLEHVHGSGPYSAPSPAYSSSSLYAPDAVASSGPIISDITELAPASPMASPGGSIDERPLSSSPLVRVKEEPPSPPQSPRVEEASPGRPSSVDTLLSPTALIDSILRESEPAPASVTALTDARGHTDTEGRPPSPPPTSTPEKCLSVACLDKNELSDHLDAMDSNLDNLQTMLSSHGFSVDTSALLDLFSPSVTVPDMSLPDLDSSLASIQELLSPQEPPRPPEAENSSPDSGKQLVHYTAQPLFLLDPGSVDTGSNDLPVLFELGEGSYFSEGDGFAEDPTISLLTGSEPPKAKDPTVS
From the text: For screening this sublibrary, a cell-based assay was developed. We opted for a cell-based assay, because a cell-free assay would have had to be a DNA-binding assay. Such an assay would have limited discovery to molecules capable of interfering with the DNA-binding function of HSF1. This was thought to be too narrow a focus, considering that three of the four cavities identified in the HSF1 DNA-binding domain are not near the DNA interaction region. A straightforward cell-based assay, in which a HSF1-responsive gene would be assayed, was considered likely to be over-inclusive. Compounds would be scored as hits that inhibit any factor that is involved in HSF1 activation or prevents HSF1 deactivation. These factors include protein kinases, activators of protein phosphatases, factors affecting HSF1 mRNA stability, HSP90, HDAC6, etc. For developing a more discriminating cell-based assay, advantage was taken of the modular nature of HSF1. […] The cell-based assay developed (see below for the particular format employed) compared transactivation by wild type HSF1 and chimeric HSF1 in cells exposed to an HSF1-activating heat treatment in the presence of a sublibrary compound. A compound was scored as a hit, if it inhibited the activity of wild type HSF1 but not of chimeric HSF1.
The cell-based assay made use of HeLa-derived cell line Z74 that stably contains a gene for chimeric transcription factor LexA-(human) HSF1 under the control of a CMV early promoter, a firefly luciferase (flue) gene driven by a promoter responsive to the latter chimeric transcription factor and a Renilla luciferase (rluc) gene functionally linked to an hsp70b promoter and therefore controlled by endogenous HSF1 (FIG. 1A). As is shown in FIGS. 1B & C, the reporter genes responded similarly to heat dose, i.e., their activation depended on both duration of heat exposure and temperature of the exposure. […] Depletion of HSF1 (and LexA-HSF1) by siRNA supported the notion that this stress regulation is mediated by HSF1 (and LexA-HSF1). Therefore, the Z74 line was well suited for use in a screening assay aimed at discovering molecules that inhibit heat-induced HSF1 activity through interaction with the transcription factor's DNA-binding domain.
as §1

human cancer cell lines = test: Viability of human cancer cell lines (overall statements); assay type: cell-based; settings: 96-hour exposure; sensitivity varied greatly; no effect of p53 status
Method: Cultures of HeLa cells were exposed for 96 hours to different concentrations of IHSF 001, 058 and 115, and viability was assessed using an Alamar Blue assay. It is noted that this standard assay examines attached cells only. This subject will be discussed in more detail below. […] The relative cytotoxicity of the compounds appears to parallel their respective activities as inhibitors of HSF1 function (inhibition of RLuc expression in Z74 cells). We next examined the viability of different human cancer cell lines subsequent to a 96-hour exposure to compound 115 (Table 3). HSF1 was reported as being required for optimal p21 expression and for p53-mediated cell cycle arrest in response to genotoxins. Logan, I. R. et al. (2009) Nucleic Acids Res. 37: 2962-2971. […] Cell lines of different p53 status were included in the experiments in order to find out whether sensitivity to IHSF 115 was related to p53 status. […] No effect of p53 status could be discovered. It is noted that a number of additional HSF inhibitors of the present disclosure were tested and found to effectively reduce the viability of human cancer cells.

Row | SMILES | FLuc expression in hsp70b promoter-driven fluc line [1] | inhibition at 25 µM (LexA-hHSF; Experiment No. 1) | inhibition at 25 µM (LexA-hHSF; Experiment No. 2) | inhibition at 25 µM (LexA-hHSF; Experiment No. 3) | inhibition at 25 µM (LexA-hHSF; Experiment No. 4) | inhibition at 25 µM (LexA-hHSF; Experiment No. 5) | inhibition at 25 µM (LexA-hHSF; Experiment No. 6) | inhibition at 25 µM (LexA-hHSF; Experiment No. 7) | inhibition at 25 µM (LexA-hHSF; Experiment No. 8) | inhibition at 25 µM (LexA-hHSF; Experiment No. 9) | viability of human cancer cell lines (human cancer cell lines)
1 | CCOC(=O)/C=C/C(=O)Nc1nccs1 [IHSF 001, (E)-ethyl 4-oxo-4-(thiazol-2-ylamino)but-2-enoate] | inhibit FLuc expression | 3% | 0% | 0% | 0% | 0% | 0% | 0% | 0% | 15% | –
2 | CN(C(=O)/C=C/C1=NCCCO1)c1ncc(-c2cccnc2)s1 [IHSF 115, (E)-3-(5,6-Dihydro-4H-[1,3]oxazin-2-yl)-N-methyl-N-(5-pyridin-3-yl-thiazol-2-yl)-acrylamide] | – | – | – | – | – | – | – | – | – | – | reduced viability in all cell lines tested
